Data reported in patent publication US10213415B2, “Compounds as opioid receptor modulators” (JANSSEN PHARMACEUTICA NV, priority 2004, dated 2019).
pEC50: −log10 of the molar value. Several values for one entry are separate records, joined by “and”; a condition that tells them apart may be missing. Identical values can stand only once. Like-named read-outs stand apart in the source and are kept apart here.

What was measured:
[1] = molecular target: T1, delta opioid receptor (CHO-hδ cell membranes) (Homo sapiens, UniProt P41143); assay: Delta Opioid Receptor Functional Assay: [35S]GTPγS Binding in CHO-hδ Cell Membranes, Version 1; format: biochemical; details: read-out: DOR GTP-binding Assay_v1 EC50
T1 construct: purchased Receptor Biology, Inc. (Baltimore, Md.); host or cells: CHO cells (recombinant expression)
T1 sequence (P41143 whole entry): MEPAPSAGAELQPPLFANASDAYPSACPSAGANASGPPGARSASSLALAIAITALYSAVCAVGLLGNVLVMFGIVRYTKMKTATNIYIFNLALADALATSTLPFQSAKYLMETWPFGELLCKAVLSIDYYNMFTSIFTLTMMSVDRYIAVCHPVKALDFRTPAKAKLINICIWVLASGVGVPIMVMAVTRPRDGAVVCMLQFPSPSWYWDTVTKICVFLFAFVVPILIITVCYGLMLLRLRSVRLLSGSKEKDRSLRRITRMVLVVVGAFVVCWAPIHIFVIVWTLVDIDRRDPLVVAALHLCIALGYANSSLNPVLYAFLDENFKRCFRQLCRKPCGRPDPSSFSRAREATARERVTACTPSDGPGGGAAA
Description: CHO-hδ cell membranes were purchased from Receptor Biology, Inc. (Baltimore, Md.). 10 mg/ml of membrane protein suspended in 10 mM TRIS-HC pH 7.2, 2 mM EDTA, 10% sucrose.
Membranes were maintained at 4-8° C. A portion (1 ml) of membranes was added into 15 mL cold binding assay buffer. The assay buffer contained 50 mM HEPES, pH 7.6, 5 mM MgCl2, 100 mM NaCl, 1 mM DTT and 1 mM EDTA. The membrane suspension was homogenized with a Polytron for 2 times and centrifuged at 3000 rpm for 10 min. The supernent was then centrifuged at 18,000 rpm for 20 min. The pellet was saved in a tube and 10 ml assay buffer was added into the tube. The pellet and buffer were mixed with a Polytron.
The pellet membranes (20 μg/ml) were preincubated with SPA (10 mg/ml) at 25° C. for 45 min in the assay buffer. The SPA (5 mg/ml) coupled with membranes (10 μg/ml) was then incubated with 0.5 nM [^35S]GTPγS in the same HEPES buffer containing 50 μM GDP in total volume of 200 μl. Increasing concentrations of receptor agonists were used to stimulate [^35S]GTPγS binding. The basal binding was tested in the absent agonists and no specific binding was tested in the present 10 μM unlabeled GTPγS. The data were analyzed on a Top counter.
Data The % of Basal=(stimulate−non specific)*100/(basal−non specific). EC50 values were calculated using a Prism program.

[2] = system: novel environment-stressed mice; assay: In Vivo Assay-Stress-Induced Fecal Output (Fecal Output for 1 hr); parameters: species or system mouse; details: for Fecal Output (# pellets) cpd: novel environment-stressed mice; for Fecal Output (# pellets) cpd / response vs control in vivo at 30 mg/kg / response vs control in vivo at 10 mg/kg: 1 hr; for response vs control in vivo at 30 mg/kg / response vs control in vivo at 10 mg/kg: Mus musculus, po, 1 h
Method in brief: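 Adult male Crl:CD-1(ICR) mice (˜30-35 g; at least 10 per dose group) were split into acclimated non-stressed controls, held individually for 16-18 hr in wire-mesh-bottom cages, and non-acclimated stressed groups. Mice were dosed intragastrically with vehicle or test compound in 0.5% methylcellulose, housed individually in novel cages over absorbent cardboard, and fecal pellets per mouse were counted hourly.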

male CD-1 mice = assay: In Vivo Assay: Upper GI Tract Transit (MUGIT); details: Mus musculus, po, 1 h, dose 30 (mg), p.o., read-out: upper GI transit (% ctrl)
Description: Methods: The animals used in these studies were male CD-1 mice, ave. wt. ˜30 g. Mice were housed under 12 h/12 h light/dark cycle, food & water ad lib. On the day of the experiment mice were assigned to experimental groups, including one vehicle-only group (=control). At 30 min before administration of carmine dye, animals were dosed with vehicle or vehicle-plus-compound, mice were returned to their home cages after drug administration. After administration of carmine, the animals were either returned to their home cages (non-stressed) or individually placed in the same metal cages as used in the fecal output or entire GI tract transit to induce a novel environment stress. One hour after administration of carmine, mice were sacrificed by cervical dislocation, the abdomen opened midventrally, the small intestine from pylorus to cecum was removed, the mesentery divided in order to lay the intestine straight & flat—without stretching. The total length of intestine and the length of carmine-dyed intestine were measured in order to determine the percent of the upper GI tract over which transit had occurred as follows: {(Length of carmine-dyed intestine)/(Total length of intestine)}×100=% upper GI transit. The data expressed were group means±SD (or s.e.m.) and data expressed as % of control.

[3] = 30 mg/kg oral, relative to acclimated control, read-out: Fecal Output cpd % control
[4] = 30 mg/kg oral, relative to novel environment stress (NES) vehicle group, read-out: Fecal Output cpd % NES
[5] = 10 mg/kg oral, relative to acclimated control, read-out: Fecal Output cpd % control
[6] = 10 mg/kg oral, relative to novel environment stress (NES) vehicle group, read-out: Fecal Output cpd % NES

SMILES: CC(C)N(C(=O)[C@@H](N)Cc1ccc(O)cc1)[C@@H](C)c1nc(-c2ccccc2)c[nH]1 [Cpd 225]
- pEC50 [1]: 5.66
- Fecal Output (# pellets) cpd ([2]; 30 mg/kg oral): 7.3 pellets
- response vs control in vivo at 30 mg/kg [2, 3]: 235%
- response vs control in vivo at 30 mg/kg [2, 4]: 152%

SMILES: CCN(C(=O)[C@@H](N)Cc1c(C)cc(O)cc1C)[C@H](C)c1nc(-c2ccccc2)c[nH]1 [Cpd 217]
- pEC50 [1]: 7.09

SMILES: CCN(C(=O)[C@@H](N)Cc1c(C)cc(O)cc1C)[C@@H](C)c1nc(-c2ccccc2)c[nH]1 [Cpd 216]
- pEC50 [1]: 7.80
- Fecal Output (# pellets) cpd ([2]; 10 mg/kg oral): 4.9 pellets
- response vs control in vivo at 10 mg/kg [2, 5]: 136%
- response vs control in vivo at 10 mg/kg [2, 6]: 47.6%

SMILES: Cc1cc(O)cc(C)c1C[C@H](N)C(=O)N(Cc1nc(-c2cc(C(F)(F)F)cc(C(F)(F)F)c2)c(C)[nH]1)C(C)C [Cpd 164]
- pEC50 [1]: 5.60

SMILES: CCN(C(=O)[C@@H](N)Cc1ccc(O)cc1)[C@@H](C)c1nc(-c2ccccc2)c[nH]1 [Cpd 215]
- pEC50 [1]: 5.97

SMILES: C[C@@H](c1nc(-c2ccccc2)c[nH]1)N(Cc1ccccc1)C(=O)[C@@H](N)Cc1ccc(O)cc1 [Cpd 219]
- pEC50 [1]: 5.45

SMILES: Cc1cc(O)cc(C)c1C[C@H](N)C(=O)N(Cc1nc(-c2ccccc2)c[nH]1)C(C)C [Cpd 194]
- pEC50 [1]: 6.72
- Fecal Output (# pellets) cpd ([2]; 10 mg/kg oral): 11.8 pellets
- response vs control in vivo at 10 mg/kg [2, 5]: 218%
- response vs control in vivo at 10 mg/kg [2, 6]: 94.4%

SMILES: COc1ccc(CN(C(=O)[C@@H](N)Cc2c(C)cc(C(N)=O)cc2C)[C@@H](C)c2nc(-c3ccccc3)c[nH]2)cc1-c1nnn[nH]1 [Cpd 8]
- response vs control in vivo at 30 mg (male CD-1 mice): 77.3%

SMILES: Cc1cc(O)cc(C)c1C[C@H](N)C(=O)N(C)[C@@H](C)c1nc(-c2ccccc2)c[nH]1 [Cpd 207]
- pEC50 [1]: 8.06 and 7.92
- response vs control in vivo at 30 mg/kg [2, 4]: 49.6%
- # of pellets, Compound (m) 0.3 ([2]; dose 0.3, oral, NES mice, fecal output 1 hr): 11.4
- Fecal pellet output, Compound (% control) 0.3 ([2]; dose 0.3, oral, NES mice, vs acclimated control): 219.2 % control
- Fecal pellet output, Compound (% NES) 0.3 ([2]; dose 0.3, oral, vs vehicle NES group): 100 % NES
- # of pellets, Compound (m) 0.5 ([2]; dose 0.5, oral, NES mice, fecal output 1 hr): 9.4
- Fecal pellet output, Compound (% control) 0.5 ([2]; dose 0.5, oral, NES mice, vs acclimated control): 195.8 % control
- Fecal pellet output, Compound (% NES) 0.5 ([2]; dose 0.5, oral, vs vehicle NES group): 109 % NES
- # of pellets, Compound (m) 3.0 ([2]; dose 3.0, oral, NES mice, fecal output 1 hr): 12 and 7.3
- Fecal pellet output, Compound (% control) 3.0 ([2]; dose 3.0, oral, NES mice, vs acclimated control): 228.8 % control and 202.8 % control
- Fecal pellet output, Compound (% NES) 3.0 ([2]; dose 3.0, oral, vs vehicle NES group): 104.4 % NES and 112.3 % NES
- # of pellets, Compound (m) 5.0 ([2]; dose 5.0, oral, NES mice, fecal output 1 hr): 8.6
- Fecal pellet output, Compound (% control) 5.0 ([2]; dose 5.0, oral, NES mice, vs acclimated control): 179.2 % control
- Fecal pellet output, Compound (% NES) 5.0 ([2]; dose 5.0, oral, vs vehicle NES group): 100 % NES
- # of pellets, Compound (m) 6.0 ([2]; dose 6.0, oral, NES mice, fecal output 1 hr): 7.5
- Fecal pellet output, Compound (% control) 6.0 ([2]; dose 6.0, oral, NES mice, vs acclimated control): 220.6 % control
- Fecal pellet output, Compound (% NES) 6.0 ([2]; dose 6.0, oral, vs vehicle NES group): 69.44 % NES
- # of pellets, Compound (m) 10.0 ([2]; dose 10.0, oral, NES mice, fecal output 1 hr): 4.9 and 6.7 and 5.5 and 4.8
- Fecal pellet output, Compound (% control) 10.0 ([2]; dose 10.0, oral, NES mice, vs acclimated control): 94.2 % control and 139.6 % control and 161.8 % control and 133.3 % control
- Fecal pellet output, Compound (% NES) 10.0 ([2]; dose 10.0, oral, vs vehicle NES group): 42.98 % NES and 77.91 % NES and 50.93 % NES and 73.85 % NES
- # of pellets, Compound (m) 30.0 ([2]; dose 30.0, oral, NES mice, fecal output 1 hr): 3.5 and 3.4
- Fecal pellet output, Compound (% control) 30.0 ([2]; dose 30.0, oral, NES mice, vs acclimated control): 103 % control and 94 % control
- Fecal pellet output, Compound (% NES) 30 ([2]; dose 30, oral, vs vehicle NES group): 32.41 % NES and 52.31 % NES

SMILES: Cc1cc(O)cc(C)c1C[C@H](N)C(=O)N(Cc1nc(-c2ccccc2)c(C)[nH]1)C(C)C [Cpd 166]
- pEC50 [1]: 7.68 and 7.15

SMILES: Cc1cc(C(N)=O)cc(C)c1C[C@H](N)C(=O)N(Cc1ccc(C(=O)O)cc1)[C@@H](C)c1nc(-c2ccccc2)c[nH]1 [Cpd 50]
- Fecal Output (# pellets) cpd ([2]; 30 mg/kg oral): 3.3 pellets
- response vs control in vivo at 30 mg/kg [2, 3]: 144%
- response vs control in vivo at 30 mg/kg [2, 4]: 47.1%

SMILES: Cc1cc(O)cc(C)c1C[C@H](N)C(=O)N(Cc1ccccc1)[C@@H](C)c1nc(-c2ccccc2)c[nH]1 [Cpd 218]
- pEC50 [1]: 7.70
- Fecal Output (# pellets) cpd ([2]; 30 mg/kg oral): 3.7 pellets
- response vs control in vivo at 30 mg/kg [2, 3]: 138%
- response vs control in vivo at 30 mg/kg [2, 4]: 35.4%

SMILES: COC(=O)c1cc(CN(C(=O)[C@@H](N)Cc2c(C)cc(C(N)=O)cc2C)[C@@H](C)c2nc(-c3ccccc3)c[nH]2)ccc1OC [Cpd 17]
- response vs control in vivo at 30 mg (male CD-1 mice): 37.3%
